Values quoted from earlier work, collected in patent publication US20060188529A1 (priority 2004, published 2006).

Test system: apo EKO mice
[1] = fenofibrate added to phytosterols

SMILES: CC(C)OC(=O)C(C)(C)Oc1ccc(C(=O)c2ccc(Cl)cc2)cc1 [fenofibrate, 2-[4-(4-chlorobenzoyl)phenoxy]-2-methyl-propanoic acid, 1-methylethyl ester]
- effect on plasma triglyceride levels (combination of fenofibrate to phytosterols): no effect
- decrease of HDL cholesterol concentrations [1]: 50%
- increase of plasma total cholesterol levels [1]: > 50%
